Test: gradient 5% acetonitrile 3 min, to 50% in 2 min, to 85% in 15 min, held 3 min, 100 µL/min
Details: column: Zorbax Extend-C18 2.1 x 50 mm; eluents: water / acetonitrile, 0.1% formic acid
Summary of the method: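 Retention time was recorded from adduct peaks, which were picked computationally and each inspected manually. Pure standards ran in mixtures of ~100 molecules on HPLC coupled to a quadrupole time-of-flight mass spectrometer, in positive and negative ionization mode, through a Zorbax Extend-C18 column (2.1 × 50 mm, 1.8 μm) at 100 μL/min. Eluents were water and acetonitrile, each with 0.1% formic acid.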

RP-LC retention time | SMILES
746 s | O=C1NC2(CCN(C(=O)Nc3ccc4c(c3)OCO4)CC2)N=C1c1ccccc1
950 s | CCOC(=O)c1cccc(Nc2c(-c3ccc(SC)cc3)nc3cnccn23)c1
661 s | CCc1nc2c(c(=O)n1CC(=O)NCc1ccc(C)cc1)CN(Cc1ccccc1)CC2
912 s | CCCn1c(=O)c(N2CCN(C(=O)C3CC3)CC2)nc2ccccc21
576 s | COCCOCC(=O)NCC1CCCCC(=O)N1 (stereo not drawn)
589 s | COc1ccc(C(=O)CSc2nc(CC(=O)NCc3cccnc3)cs2)cc1
821 s | CCN(Cc1ccccc1)C(=O)C1CCCN(S(=O)(=O)c2ccc3c(c2)CCCC(=O)N3)C1 (stereo not drawn)
800 s | CCCOc1ccc(C(=O)Nc2nnc(C3CC(=O)N(c4ccccc4)C3)o2)cc1 (stereo not drawn)
761 s | COc1cc([C@@H]2c3cc4c(cc3[C@H](O)[C@@H](CO)[C@@H]2C(=O)NCCCc2ccccc2)OCO4)cc(OC)c1OC
931 s | O=C(C1CCN(S(=O)(=O)c2cc(-c3noc(C4CC4)n3)cs2)CC1)N1CCCCC1
994 s | Cc1ccc(NC(=O)c2cc(C)n3nc(C)cc3n2)cc1
762 s | Cc1nn(C(C)C)c(C)c1S(=O)(=O)N1CCN(C(=O)c2cncc(Br)c2)CC1
831 s | Cc1ccc(C2=NC3(CCN(C(=O)c4ccc5c(c4)OCO5)CC3)NC2=O)cc1C
619 s | CCCN(C(=O)Nc1cccc(C)c1C)c1nc(-c2ccc(C3CCCCC3)cc2)cs1
678 s | O=C(NCCCN1CCCC1=O)C1c2ccccc2CC(=O)N1Cc1ccccc1 (stereo not drawn)
690 s | CC(=O)N1CCc2cc(N3CC(C(=O)Nc4ccc(F)cc4C)CC3=O)ccc21 (stereo not drawn)
614 s | CCN(CC)CCCNC(=O)C1CCC(=O)N(c2ccc(OC)cc2)C1c1ccc(F)cc1 (stereo not drawn)
718 s | CCCCc1ccc(NC(=O)CSc2ccc(-c3ccncc3)nn2)cc1
703 s | CCCNc1cc(N2CCCC(CCC(=O)Nc3ccccc3)C2)ncn1 (stereo not drawn)
947 s | COCC(=O)N(CC(=O)N1CCc2sccc2C1COc1ccc(C(C)C)cc1)C1CC1 (stereo not drawn)
846 s | O=c1ccc(N2CCCN(S(=O)(=O)c3ccc(F)cc3)CC2)nn1-c1ccccc1
703 s | CCOc1cc(=O)n2c(c1C(=O)N1CCCCCC1)CCCCC2

RP-LC retention time | SMILES
851 s | CCc1nn(C(C)C(=O)NCCc2c[nH]c3ccccc23)c(=O)c2cc3occc3n12 (stereo not drawn)
737 s | COCCn1cc(CCNC(=O)c2cc(F)cc(F)c2)c2cccnc21
1020 s | Cc1ccc2c(c1)N(S(C)(=O)=O)CCC(C(=O)Nc1cccc(Cl)c1)O2 (stereo not drawn)
639 s | O=C(CN1C(=O)C2CCCCN2c2ccc(C(=O)N3CCCC3)cc21)NCCCN1CCCCCC1 (stereo not drawn)
868 s | Oc1cc(-n2cccn2)c(O)cc1-n1cccn1
837 s | Cc1sc2ccn(CC(C)C)c(=O)c2c1C(=O)N1CCCCC1
735 s | COCC(=O)NC1CCC12CCN(C(=O)CCC1CCCC1)CC2 (stereo not drawn)
731 s | COc1cccc(NC(=O)N2CCC(OC3CCN(S(C)(=O)=O)CC3)CC2)c1
810 s | O=C(C1CCN(c2cnc3nccnc3c2)CC1)N1CCN(c2ccc(Cl)cc2)CC1
1270 s | COc1ccc2c(c1)CCc1sc(NC(=O)c3cc(Cl)ccc3OC)nc1-2
896 s | Cc1ccc(C)c2sc(N(C)CC(=O)Nc3ccc(-n4cnnn4)cc3)nc12
821 s | Cc1nn(-c2ccccc2)c2c1N(CC(=O)NCCC(C)C)C(=O)CS2
1230 s | CCCCCCOC(=O)[C@@]1(O)CC2O[C@]1(C)n1c3ccccc3c3c4c(c5c6ccccc6n2c5c31)C(=O)NC4
896 s | CCn1nc(CNC(=O)c2ccc(F)c(F)c2)c2ccccc21
812 s | CCOc1ccc(C2c3c(oc4ccc(C)cc4c3=O)C(=O)N2CCCN2CCOCC2)cc1 (stereo not drawn)
1310 s | O=C1COc2ccc(Cl)cc2N1Cc1nc(-c2ccc(-c3csc(C4CC4)n3)cc2)no1
773 s | COc1ccc(C(=O)Nc2nnc(C3CC(=O)N(c4ccc(Cl)cc4)C3)o2)cc1 (stereo not drawn)
847 s | CC(C)CNC(=O)CCc1nc2ccccc2n(CC(=O)NCc2ccccc2Br)c1=O
666 s | Cc1c(Cl)cccc1NC(=O)N1CCN(CCn2c(C(F)(F)F)nc3cccnc32)CC1
992 s | CCn1cc(-c2nc(C(=O)NCc3ccc(F)cc3F)cs2)c2cccnc21
653 s | Cc1ccc(C)c(N2CCN(C(=O)c3nc4cccnc4n(C)c3=O)CC2)c1
738 s | CC(=O)N1CCc2cc(N3CC(C(=O)Nc4cccc(Cl)c4)CC3=O)ccc21 (stereo not drawn)

RP-LC retention time | SMILES
602 s | O=C1NC(C(=O)NCC2CC2)Cn2cccc21 (stereo not drawn)
722 s | O=C(CCc1c(-c2ccc(Br)cc2)nc2ccccn12)NCCCc1ccccc1
772 s | O=C(NCc1csc(-c2cccs2)n1)C1CCN(C(=O)c2cccc(F)c2)CC1
682 s | CCN1CCC(N(Cc2cccs2)C(=O)Nc2ccc(Cl)cc2)CC1
1020 s | Cc1sc(-c2noc(C3CC3)n2)cc1S(=O)(=O)N1CCC(C(=O)NC2CCCCC2)CC1
614 s | COc1cc(CN2CCC3(CCC3O)CC2)ccc1OC(C)C (stereo not drawn)
682 s | O=C(NCCOc1ccc2nnc(-c3cccc(F)c3)n2n1)c1cc(=O)c2ccccc2o1
684 s | Cc1ccc(CN2CC(n3cc(COc4ccc(F)cc4)nn3)C2)s1
795 s | COc1ccc2[nH]cc(CCNC(=O)CCCn3c4ccccc4c4cnn(C)c(=O)c43)c2c1
805 s | Cc1ccc(NC(=O)Cn2nc(N(C)C)c3ccccc3c2=O)c(F)c1
708 s | CC(C)c1ccc(CNC(=O)c2ccc3ncnc(N4CCOCC4)c3c2)cc1
768 s | CCOC(=O)c1nc(NCCc2cc(OC)ccc2OC)c2ccccc2n1
592 s | COc1ccc(NC2CS(=O)(=O)CC2O)cc1 (stereo not drawn)
819 s | CCn1c(SCC(=O)Nc2ccc3c(c2)OCO3)nnc1-c1cn(C)nc1-c1ccc(Cl)cc1
1040 s | COc1ccc(C(=O)Nc2nccnc2C(=O)NC2CCCCC2)cc1
812 s | Cc1ccc(N(C)C(=O)c2nc(N3CCSCC3)c3cnn(C)c3n2)cc1
624 s | c1cncc(-c2noc(CCC3CCCN(C4CCCCC4)C3)n2)c1 (stereo not drawn)
1170 s | Cc1ccc(NC(=O)Cn2nc(N3CCSCC3)c3ccccc3c2=O)cc1
567 s | CCC(=O)Nc1ccc(CCc2nc3ccc(C(=O)NCCOC)cc3[nH]2)cc1
614 s | O=C(NCCN1CCCCCC1)C1CCN(c2cnn(Cc3ccccc3)c(=O)c2)CC1
805 s | O=C(NC1CC1)c1ccccc1OCC1CCN(C(=O)c2ccc(F)cc2)CC1
912 s | O=C(Nc1ccc(C(F)(F)F)cc1)NC1CCN(c2ccccc2)C1=O (stereo not drawn)

RP-LC retention time | SMILES
660 s | CC(=O)Nc1cccc(-c2nc(-c3ccc4ncn(C(C)C)c4c3)no2)c1
1090 s | O=C(c1ccccc1)c1ccccc1C(=O)c1ccccc1
1060 s | COc1cccc(Cn2cccc2-c2nc(-c3ccncc3)no2)c1
598 s | CCC1CCCCN1CCCNC(=O)CCc1cc2ccccc2[nH]c1=O (stereo not drawn)
840 s | COC(=O)C(C)n1cccc1-c1nc(-c2ccncc2)no1 (stereo not drawn)
968 s | Cc1cc(C)n(-c2nc(CC(=O)N3CCN(c4ccc(F)cc4)CC3)cs2)n1
713 s | Cc1cc(=O)n(CC(=O)NC(C)CCc2ccccc2)c(N2CCOCC2)n1 (stereo not drawn)
780 s | CCn1c(=O)c(C(=O)NCc2cccc(OC)c2)nc2cccnc21
714 s | CCn1nccc1C(=O)N1CCCN(C2=NS(=O)(=O)C(c3ccccc3)=C2C)CC1
954 s | Cc1ccc2[nH]cc(CCNC(=O)CN3C(=O)CSc4cccn4-c4ccccc43)c2c1
705 s | CCN1CCN(C2CCN(C(=O)c3cc(F)ccc3Cl)CC2)C1=O
618 s | COc1ccc(C(C)NC(=O)c2cc(NC(C)=O)cc3nc(C)ccc23)cc1 (stereo not drawn)
647 s | COCc1cc(=O)n(CC(=O)Nc2ccc(C)c(C)c2)c(N)n1
851 s | O=C(Nc1cc(F)cc(F)c1)NC1CCN(c2ccccc2)C1=O (stereo not drawn)
776 s | O=C(NC1CCN(c2cc(-c3cccs3)[nH]n2)C1)c1ccc(Cl)cc1 (stereo not drawn)
769 s | COc1ccc(C2Cn3nnc(C(=O)N4CCC(C(=O)NC5CCCC5)CC4)c3CO2)cc1 (stereo not drawn)
798 s | O=C(c1cnccn1)N1CCCC1c1nc(-c2cccc(C(F)(F)F)c2)no1 (stereo not drawn)
724 s | CCCN(C)c1nccnc1OC1CCN(C(=O)C2CC2)C1 (stereo not drawn)
786 s | CCC(=O)N1CCc2c(C(=O)N3CCN(c4ccccc4OC)CC3)cccc21

SMILES | RP-LC retention time
CCOC(=O)c1cc(S(=O)(=O)N2CC3CC(C2)c2cccc(=O)n2C3)cn1C (stereo not drawn) | 704 s
COc1cc([C@@H]2c3cc4c(cc3[C@H](O)[C@@H](CO)[C@@H]2C(=O)N2CCCC2)OCO4)cc(OC)c1OC | 641 s
NC(=O)CS(=O)C(c1ccccc1)c1ccccc1 (stereo not drawn) | 710 s
